inhibition, IC50 and % of control data for three molecules are collected here from ChEMBL document CHEMBL5696442, “Discovery of type II inhibitors of TGFβ-activated kinase 1 (TAK1) and mitogen-activated protein kinase kinase kinase kinase 2 (MAP4K2)” (J Med Chem, 2015).

In assay [1] the target is Phosphatidylinositol 4,5-bisphosphate 3-kinase catalytic subunit alpha isoform (Homo sapiens) (UniProt P42336). Briefly: Inhibition of PIK3CA ATP labeling site in human Huh-7 cell lysate at 1 uM by KiNativ Profiling analysis relative to control. Format: subcellular.
The target in assay [2] is T1, Serine/threonine-protein kinase ULK1 (Homo sapiens) (UniProt O75385).
T1 sequence (whole entry): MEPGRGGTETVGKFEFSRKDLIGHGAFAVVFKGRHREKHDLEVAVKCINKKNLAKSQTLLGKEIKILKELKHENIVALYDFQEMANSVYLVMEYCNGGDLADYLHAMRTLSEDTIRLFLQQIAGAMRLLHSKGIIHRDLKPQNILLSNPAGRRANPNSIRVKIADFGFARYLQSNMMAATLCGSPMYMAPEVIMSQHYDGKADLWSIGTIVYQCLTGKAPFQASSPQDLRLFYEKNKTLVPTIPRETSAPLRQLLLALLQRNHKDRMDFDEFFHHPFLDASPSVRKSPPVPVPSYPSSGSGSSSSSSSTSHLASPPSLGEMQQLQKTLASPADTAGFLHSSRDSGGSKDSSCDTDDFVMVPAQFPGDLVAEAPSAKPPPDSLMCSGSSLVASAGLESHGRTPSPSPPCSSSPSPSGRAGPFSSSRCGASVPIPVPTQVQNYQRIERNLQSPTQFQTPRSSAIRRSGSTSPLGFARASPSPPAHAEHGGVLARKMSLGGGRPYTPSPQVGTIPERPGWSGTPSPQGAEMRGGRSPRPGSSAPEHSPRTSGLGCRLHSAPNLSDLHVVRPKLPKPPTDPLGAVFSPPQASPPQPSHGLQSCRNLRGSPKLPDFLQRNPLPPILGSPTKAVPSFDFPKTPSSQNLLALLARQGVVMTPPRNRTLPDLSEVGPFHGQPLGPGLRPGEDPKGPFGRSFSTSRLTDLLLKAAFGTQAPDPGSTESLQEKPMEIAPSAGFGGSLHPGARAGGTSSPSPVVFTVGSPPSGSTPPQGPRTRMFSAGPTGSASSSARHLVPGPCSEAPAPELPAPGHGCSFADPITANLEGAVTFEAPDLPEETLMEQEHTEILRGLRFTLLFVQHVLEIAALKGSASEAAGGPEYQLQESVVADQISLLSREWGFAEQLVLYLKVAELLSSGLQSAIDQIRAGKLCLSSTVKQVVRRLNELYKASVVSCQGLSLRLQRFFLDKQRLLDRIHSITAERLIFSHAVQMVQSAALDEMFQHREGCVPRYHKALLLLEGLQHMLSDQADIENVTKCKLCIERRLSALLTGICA
The assay is described as follows: Inhibition of ULK1 Lys2 labeling site in human A-375 cells at 5 uM by KiNativ Profiling analysis relative to control. It counts as cell-based.

Assay [3] in a line: Inhibition of KHS1 (unknown origin) Lys1 labeling site by KiNativ Profiling analysis. Details: species or system Homo sapiens.
Assay [4] addresses Serine/threonine-protein kinase 4 (Homo sapiens) (UniProt Q13043). The assay is described as follows: Inhibition of MST1 Lys1 labeling site harbouring ETGQIVAIKQVPVESDLQEIIK in human A-375 cells at 0.05 uM by KiNativ Profiling analysis relative to control.
The target of assay [5] is Epithelial discoidin domain-containing receptor 1 (Homo sapiens) (UniProt Q08345). Briefly: Inhibition of DDR1 (unknown origin) at 1 uM by Ambit Kinomescan binding assay relative to control; values are per cent of control.
Assay [6] has as its target T2, Scaffold protein ILK (Homo sapiens) (UniProt Q13418).
T2 sequence (whole entry): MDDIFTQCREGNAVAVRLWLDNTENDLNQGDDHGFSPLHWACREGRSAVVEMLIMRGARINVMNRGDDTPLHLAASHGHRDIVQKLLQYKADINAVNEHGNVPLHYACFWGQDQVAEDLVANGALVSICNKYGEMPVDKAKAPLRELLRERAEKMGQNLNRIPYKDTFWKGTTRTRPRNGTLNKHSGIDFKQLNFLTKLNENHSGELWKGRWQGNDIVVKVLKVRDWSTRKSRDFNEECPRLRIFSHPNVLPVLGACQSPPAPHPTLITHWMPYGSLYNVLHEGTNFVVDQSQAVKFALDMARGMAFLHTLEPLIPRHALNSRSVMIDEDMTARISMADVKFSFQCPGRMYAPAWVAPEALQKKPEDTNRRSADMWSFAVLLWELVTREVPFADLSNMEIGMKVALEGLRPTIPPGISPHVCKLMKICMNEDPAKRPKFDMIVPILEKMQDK
Briefly: Inhibition of ILK Protein Kinase Domain in human A-375 cells at 0.05 uM by KiNativ Profiling analysis relative to control. It counts as cell-based.

The target of assay [7] is T3, Eukaryotic elongation factor 2 kinase (Homo sapiens) (UniProt O00418).
T3 sequence (whole entry): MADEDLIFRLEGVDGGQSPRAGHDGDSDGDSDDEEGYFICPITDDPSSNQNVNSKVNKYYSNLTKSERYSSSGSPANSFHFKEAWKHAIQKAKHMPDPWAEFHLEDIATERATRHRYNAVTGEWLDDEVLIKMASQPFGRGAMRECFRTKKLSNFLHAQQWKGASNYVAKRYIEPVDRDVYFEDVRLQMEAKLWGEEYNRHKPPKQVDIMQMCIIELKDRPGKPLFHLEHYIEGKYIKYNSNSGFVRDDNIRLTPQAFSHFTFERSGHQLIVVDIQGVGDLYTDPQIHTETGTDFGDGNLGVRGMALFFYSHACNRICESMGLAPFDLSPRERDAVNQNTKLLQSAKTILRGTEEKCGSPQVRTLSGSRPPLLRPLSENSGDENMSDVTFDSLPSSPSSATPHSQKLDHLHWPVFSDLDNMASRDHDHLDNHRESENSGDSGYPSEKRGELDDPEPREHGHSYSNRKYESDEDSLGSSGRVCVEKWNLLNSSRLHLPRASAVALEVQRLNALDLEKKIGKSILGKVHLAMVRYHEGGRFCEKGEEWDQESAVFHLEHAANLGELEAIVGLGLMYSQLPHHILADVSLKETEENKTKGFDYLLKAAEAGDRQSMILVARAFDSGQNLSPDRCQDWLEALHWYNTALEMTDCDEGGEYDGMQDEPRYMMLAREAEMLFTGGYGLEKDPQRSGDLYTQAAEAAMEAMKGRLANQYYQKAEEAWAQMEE
Briefly: Inhibition of eEF2K ATP labeling site harbouring YIKYNSNSGFVRDDNIR in human A-375 cells at 0.5 uM by KiNativ Profiling analysis relative to control. It counts as cell-based.

Phosphatidylinositol 4,5-bisphosphate 3-kinase catalytic subunit alpha isoform (Homo sapiens), sequence (P42336 whole entry, canonical isoform): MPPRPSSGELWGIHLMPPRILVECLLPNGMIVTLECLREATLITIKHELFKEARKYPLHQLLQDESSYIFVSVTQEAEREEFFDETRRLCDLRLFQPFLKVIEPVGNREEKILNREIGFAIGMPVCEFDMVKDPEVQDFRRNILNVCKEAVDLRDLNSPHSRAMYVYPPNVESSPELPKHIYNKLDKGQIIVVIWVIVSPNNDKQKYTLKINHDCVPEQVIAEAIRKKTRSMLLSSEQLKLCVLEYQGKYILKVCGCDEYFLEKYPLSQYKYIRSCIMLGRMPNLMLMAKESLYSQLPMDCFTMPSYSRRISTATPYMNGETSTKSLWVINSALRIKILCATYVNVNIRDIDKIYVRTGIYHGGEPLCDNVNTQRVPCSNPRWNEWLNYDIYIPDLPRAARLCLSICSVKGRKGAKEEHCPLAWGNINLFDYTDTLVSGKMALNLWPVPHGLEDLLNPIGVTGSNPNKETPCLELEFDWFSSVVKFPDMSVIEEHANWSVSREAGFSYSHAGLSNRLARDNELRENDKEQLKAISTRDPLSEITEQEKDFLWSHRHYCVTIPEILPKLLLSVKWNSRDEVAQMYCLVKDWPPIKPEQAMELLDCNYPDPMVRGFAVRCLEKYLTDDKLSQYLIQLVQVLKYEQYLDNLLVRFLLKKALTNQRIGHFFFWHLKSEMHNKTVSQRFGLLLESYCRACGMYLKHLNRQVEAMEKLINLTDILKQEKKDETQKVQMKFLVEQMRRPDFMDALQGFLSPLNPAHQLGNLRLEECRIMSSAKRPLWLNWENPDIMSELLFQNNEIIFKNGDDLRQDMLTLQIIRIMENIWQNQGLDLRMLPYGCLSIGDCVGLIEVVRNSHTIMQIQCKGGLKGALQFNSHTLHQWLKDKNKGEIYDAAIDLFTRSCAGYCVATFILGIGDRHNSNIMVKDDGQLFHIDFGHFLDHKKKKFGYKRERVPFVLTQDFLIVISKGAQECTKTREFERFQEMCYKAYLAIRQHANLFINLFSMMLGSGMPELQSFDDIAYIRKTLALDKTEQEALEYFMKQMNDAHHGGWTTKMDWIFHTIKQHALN
Serine/threonine-protein kinase 4 (Homo sapiens), sequence (Q13043 whole entry, looked up, the tested form may be a part): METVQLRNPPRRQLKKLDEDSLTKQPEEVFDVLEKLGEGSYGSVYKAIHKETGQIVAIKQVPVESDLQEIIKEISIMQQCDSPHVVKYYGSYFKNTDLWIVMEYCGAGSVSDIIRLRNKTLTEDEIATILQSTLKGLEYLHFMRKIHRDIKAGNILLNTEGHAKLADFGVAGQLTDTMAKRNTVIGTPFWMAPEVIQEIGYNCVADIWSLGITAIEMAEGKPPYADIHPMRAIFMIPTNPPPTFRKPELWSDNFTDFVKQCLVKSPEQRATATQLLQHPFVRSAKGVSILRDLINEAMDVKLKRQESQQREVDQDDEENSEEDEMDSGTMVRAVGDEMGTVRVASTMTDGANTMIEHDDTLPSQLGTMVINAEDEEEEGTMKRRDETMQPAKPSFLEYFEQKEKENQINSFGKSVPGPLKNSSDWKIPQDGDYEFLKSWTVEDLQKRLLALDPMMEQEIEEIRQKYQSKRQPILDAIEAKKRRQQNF
Epithelial discoidin domain-containing receptor 1 (Homo sapiens), sequence (Q08345 whole entry, the tested form may be a part): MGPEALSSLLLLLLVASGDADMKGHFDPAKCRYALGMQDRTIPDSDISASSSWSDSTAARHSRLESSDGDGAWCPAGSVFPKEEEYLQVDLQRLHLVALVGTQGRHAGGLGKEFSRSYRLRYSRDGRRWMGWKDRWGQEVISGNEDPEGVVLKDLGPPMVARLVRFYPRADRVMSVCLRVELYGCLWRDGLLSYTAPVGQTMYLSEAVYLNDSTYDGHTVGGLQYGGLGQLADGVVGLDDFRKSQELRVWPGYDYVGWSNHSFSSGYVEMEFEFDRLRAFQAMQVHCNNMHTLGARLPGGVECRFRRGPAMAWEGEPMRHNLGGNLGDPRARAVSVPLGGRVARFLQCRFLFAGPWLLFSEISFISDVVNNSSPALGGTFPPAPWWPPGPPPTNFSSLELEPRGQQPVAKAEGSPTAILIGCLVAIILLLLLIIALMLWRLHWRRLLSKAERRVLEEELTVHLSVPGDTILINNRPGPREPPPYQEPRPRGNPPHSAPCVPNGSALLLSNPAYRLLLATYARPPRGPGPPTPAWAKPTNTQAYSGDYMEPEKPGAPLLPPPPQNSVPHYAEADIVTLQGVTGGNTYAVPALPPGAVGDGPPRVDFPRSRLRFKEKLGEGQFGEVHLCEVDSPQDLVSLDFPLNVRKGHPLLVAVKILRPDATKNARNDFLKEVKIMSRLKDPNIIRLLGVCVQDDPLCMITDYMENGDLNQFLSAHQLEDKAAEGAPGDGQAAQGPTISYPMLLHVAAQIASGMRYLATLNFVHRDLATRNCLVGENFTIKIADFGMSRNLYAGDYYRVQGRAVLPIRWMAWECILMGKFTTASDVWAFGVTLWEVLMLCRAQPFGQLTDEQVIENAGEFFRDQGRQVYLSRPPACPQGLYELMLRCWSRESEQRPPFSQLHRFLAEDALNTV

Broadly, the inhibition is the relative decrease from the control value, in per cent. `CNc1cc(Oc2cc(C(=O)Nc3cc(N4CCN(C)CC4)cc(C(F)(F)F)c3)ccc2C)ncn1`: in assay [1], the inhibition worked out at 12.4%.

One may read the IC50 as the concentration needed to halve the response being measured. A high value points to lower potency. For the molecule `CCN1CCN(Cc2ccc(NC(=O)c3ccc(C)c(/C=C/c4cnc5[nH]ccc5c4OC)c3)cc2C(F)(F)F)CC1`, the inhibition is -1.3% in assay [2], 11.9% in assay [4] and -9.6% in assay [6]. The same molecule had an IC50 in assay [3] of 1.2 µM. The same molecule came in with a % of control in assay [5] of 0.05%.

Turning to `CCN1CCN(Cc2ccc(NC(=O)c3ccc(C)c(Oc4ccnc5[nH]ccc45)c3)cc2C(F)(F)F)CC1`, the inhibition in assay [7] amounted to 0.1%.
